Where only a bound is given, the exact number is not on record here.

Type in all cases: cell-based
One assay has as its target T1, human TLR8 (Homo sapiens, UniProt Q9NR97).
T1 construct: host or cells: HEK-Blue cells (HEK293-derived reporter line)
T1 sequence (Q9NR97 27-1041): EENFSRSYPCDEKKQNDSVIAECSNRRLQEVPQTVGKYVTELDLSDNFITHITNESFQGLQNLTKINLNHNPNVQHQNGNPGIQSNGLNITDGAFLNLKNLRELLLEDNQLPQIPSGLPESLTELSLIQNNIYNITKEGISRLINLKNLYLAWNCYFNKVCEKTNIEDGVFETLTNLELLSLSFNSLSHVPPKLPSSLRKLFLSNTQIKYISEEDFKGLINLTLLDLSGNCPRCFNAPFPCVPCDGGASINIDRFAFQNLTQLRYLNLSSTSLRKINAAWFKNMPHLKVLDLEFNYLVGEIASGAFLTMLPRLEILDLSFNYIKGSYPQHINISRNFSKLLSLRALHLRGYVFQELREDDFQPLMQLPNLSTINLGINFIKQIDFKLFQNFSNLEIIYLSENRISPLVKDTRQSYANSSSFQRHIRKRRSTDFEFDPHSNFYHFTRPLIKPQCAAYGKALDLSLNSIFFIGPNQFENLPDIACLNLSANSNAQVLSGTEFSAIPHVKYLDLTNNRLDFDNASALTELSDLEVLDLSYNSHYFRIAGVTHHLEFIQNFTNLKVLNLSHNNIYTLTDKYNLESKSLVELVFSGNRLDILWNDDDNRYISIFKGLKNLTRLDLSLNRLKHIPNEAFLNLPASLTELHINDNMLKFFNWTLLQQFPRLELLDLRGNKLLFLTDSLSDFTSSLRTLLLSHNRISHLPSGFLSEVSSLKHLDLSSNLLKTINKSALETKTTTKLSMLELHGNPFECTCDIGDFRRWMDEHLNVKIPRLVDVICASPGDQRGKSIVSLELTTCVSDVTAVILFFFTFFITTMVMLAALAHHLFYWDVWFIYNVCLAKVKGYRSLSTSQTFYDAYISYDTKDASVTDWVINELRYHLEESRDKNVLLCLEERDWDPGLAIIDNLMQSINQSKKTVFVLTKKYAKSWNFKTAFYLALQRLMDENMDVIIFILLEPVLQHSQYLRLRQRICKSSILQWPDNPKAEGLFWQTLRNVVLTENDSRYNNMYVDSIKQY
Briefly: TLR8 inhibition reporter assay (HEK-Blue cells, SEAP reporter, R848 stimulation). The following applies: HEK-Blue cells overexpressing human TLR8, SEAP reporter, R848 15.9 μM. Put shortly: (§1)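 Cells seeded per well (15000 TLR7, 20,000 TLR8, 25,000 TLR9); compound added over 0.05 nM–50 μM for 30 min at room temperature; agonist added (TLR7 gardiquimod 7.5 μM, TLR8 R848 15.9 μM, TLR9 ODN2006 5 nM); 22 h at 37 °C; SEAP measured; percent inhibition calculated.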
For orientation: In a reporter assay the amount or activity of a reporter protein is the signal.

A further assay addresses T2, human TLR9 (Homo sapiens, UniProt Q9NR96).
T2 construct: host or cells: HEK-Blue cells (HEK293-derived reporter line)
T2 sequence (Q9NR96 26-1032): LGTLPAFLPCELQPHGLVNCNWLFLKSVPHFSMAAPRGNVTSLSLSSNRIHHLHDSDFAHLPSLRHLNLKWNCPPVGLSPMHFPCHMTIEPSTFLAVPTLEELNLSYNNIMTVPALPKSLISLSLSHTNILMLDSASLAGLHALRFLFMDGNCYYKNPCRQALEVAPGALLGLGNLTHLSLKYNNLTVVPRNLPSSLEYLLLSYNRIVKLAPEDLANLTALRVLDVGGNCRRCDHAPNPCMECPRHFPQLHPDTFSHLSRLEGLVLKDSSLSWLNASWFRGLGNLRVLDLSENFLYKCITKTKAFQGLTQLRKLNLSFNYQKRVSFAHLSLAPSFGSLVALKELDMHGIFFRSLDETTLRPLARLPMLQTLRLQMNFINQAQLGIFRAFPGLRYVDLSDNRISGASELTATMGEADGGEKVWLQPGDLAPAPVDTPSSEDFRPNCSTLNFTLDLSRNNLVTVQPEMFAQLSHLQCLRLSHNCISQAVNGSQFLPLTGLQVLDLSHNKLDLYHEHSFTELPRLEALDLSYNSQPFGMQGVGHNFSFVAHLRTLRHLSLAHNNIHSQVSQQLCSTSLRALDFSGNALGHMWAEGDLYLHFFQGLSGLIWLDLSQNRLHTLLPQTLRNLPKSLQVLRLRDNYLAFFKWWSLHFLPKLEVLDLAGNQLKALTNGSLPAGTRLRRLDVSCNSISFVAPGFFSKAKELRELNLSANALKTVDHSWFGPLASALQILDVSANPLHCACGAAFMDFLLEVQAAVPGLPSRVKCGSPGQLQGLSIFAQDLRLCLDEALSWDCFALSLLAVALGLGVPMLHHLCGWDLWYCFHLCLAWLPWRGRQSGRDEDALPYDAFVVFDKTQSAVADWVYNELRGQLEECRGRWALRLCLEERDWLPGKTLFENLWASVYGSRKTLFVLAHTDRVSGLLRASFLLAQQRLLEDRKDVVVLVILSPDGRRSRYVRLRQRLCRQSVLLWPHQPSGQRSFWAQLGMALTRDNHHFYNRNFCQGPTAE
Briefly: TLR9 inhibition reporter assay (HEK-Blue cells, SEAP reporter, ODN2006 stimulation). The settings on record: HEK-Blue cells overexpressing human TLR9, SEAP reporter, ODN2006 5 nM. Put shortly:
as §1

Another assay deals with T3, human TLR7 (Homo sapiens, UniProt Q9NYK1).
T3 construct: host or cells: HEK-Blue cells (HEK293-derived reporter line)
T3 sequence (Q9NYK1 27-1049): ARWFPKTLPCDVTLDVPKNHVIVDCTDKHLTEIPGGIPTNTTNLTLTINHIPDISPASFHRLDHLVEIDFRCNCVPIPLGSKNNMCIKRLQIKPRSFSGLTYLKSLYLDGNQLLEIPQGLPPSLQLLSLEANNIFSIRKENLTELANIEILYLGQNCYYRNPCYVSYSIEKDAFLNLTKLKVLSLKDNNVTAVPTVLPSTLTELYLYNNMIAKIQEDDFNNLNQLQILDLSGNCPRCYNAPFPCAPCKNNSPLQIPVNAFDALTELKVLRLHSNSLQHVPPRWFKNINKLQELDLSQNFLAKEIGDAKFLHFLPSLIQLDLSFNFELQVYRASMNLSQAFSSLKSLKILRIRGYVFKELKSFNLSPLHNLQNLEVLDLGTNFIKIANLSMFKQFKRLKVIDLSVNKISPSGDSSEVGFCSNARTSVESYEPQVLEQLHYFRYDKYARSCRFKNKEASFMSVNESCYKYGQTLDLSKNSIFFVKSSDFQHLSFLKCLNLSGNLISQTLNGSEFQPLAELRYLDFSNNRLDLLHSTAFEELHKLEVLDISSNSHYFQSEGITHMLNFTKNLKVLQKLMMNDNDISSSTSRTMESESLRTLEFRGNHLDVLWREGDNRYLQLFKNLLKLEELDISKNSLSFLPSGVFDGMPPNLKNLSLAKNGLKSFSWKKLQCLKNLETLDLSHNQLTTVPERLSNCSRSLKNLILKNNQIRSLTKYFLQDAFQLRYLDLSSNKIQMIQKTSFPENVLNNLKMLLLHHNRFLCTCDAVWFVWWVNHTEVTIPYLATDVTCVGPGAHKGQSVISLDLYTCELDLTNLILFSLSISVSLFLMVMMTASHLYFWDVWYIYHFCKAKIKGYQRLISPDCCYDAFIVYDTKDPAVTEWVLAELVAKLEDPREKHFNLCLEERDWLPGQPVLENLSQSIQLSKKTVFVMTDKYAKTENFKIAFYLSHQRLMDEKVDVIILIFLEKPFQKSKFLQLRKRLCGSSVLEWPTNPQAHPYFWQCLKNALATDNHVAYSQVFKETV
Kind of assay: TLR7 inhibition reporter assay (HEK-Blue cells, SEAP reporter, gardiquimod stimulation). The settings on record: HEK-Blue cells overexpressing human TLR7, SEAP reporter, gardiquimod 7.5 μM. Put shortly: as §1

As a reminder, the IC50 is the concentration that gives 50% inhibition. A lower IC50 goes with higher potency. Consider `CNCCN1CCC(c2ccc3[nH]c(-c4ccnc5[nH]ccc45)c(C)c3c2)CC1` [Example 668, N-methyl-2-(4-(3-methyl-2-(1H-pyrrolo[2,3-b]pyridin-4-yl)-1H-indol-5-yl)piperidin-1-yl)ethan-1-amine], for which the IC50 at human TLR8 is under 100 nM; at human TLR9, 100 to 1000 nM; at human TLR7, 100 to 1000 nM.
Consider `CNC(=O)CN1CCC(c2ccc3[nH]c(-c4cc(C)n5nncc5c4)c(C(C)C)c3c2)CC1` [Example 320, 2-(4-(3-isopropyl-2-(7-methyl-[1,2,3]triazolo[1,5-a]pyridin-5-yl)-1H-indol-5-yl)piperidin-1-yl)-N-methylacetamide], for which the concentration for half-maximal inhibition (IC50) at human TLR8 is under 100 nM; on human TLR9, 1000 to 50000 nM; against human TLR7, under 100 nM.
With `CC(C)c1c(-c2ccnc3[nH]ncc23)[nH]c2ccc(C3CCN(Cc4nccc5ccccc45)CC3)cc12` [Example 910, 1-((4-(3-isopropyl-2-(1H-pyrazolo[3,4-b]pyridin-4-yl)-1H-indol-5-yl)piperidin-1-yl)methyl)isoquinoline], the concentration for half-maximal inhibition (IC50) at human TLR8 was in the range of 100 to 1000 nM; on human TLR9, 1000 to 50000 nM; against human TLR7 it was 100 to 1000 nM.
Take `CC(C)c1c(-c2ccc3ncnn3n2)[nH]c2ccc(C3CCNCC3)cc12` [Example 242, 6-(3-isopropyl-5-(piperidin-4-yl)-1H-indol-2-yl)-[1,2,4]triazolo[1,5-b]pyridazine]: the half-inhibitory concentration (IC50) was under 100 nM at human TLR8, 1000 to 50000 nM on human TLR9 and under 100 nM against human TLR7.
Take `Cc1cc(-c2[nH]c3ccc(C4CCN(C(=O)CN5CCS(=O)(=O)CC5)CC4)cc3c2C(C)C)cn2nnnc12` [Example 485, 2-(1,1-dioxidothiomorpholino)-1-(4-(3-isopropyl-2-(8-methyltetrazolo[1,5-a]pyridin-6-yl)-1H-indol-5-yl)piperidin-1-yl)ethan-1-one]: the IC50 against human TLR8 was under 100 nM; against human TLR9, over 50000 nM; against human TLR7 it was under 100 nM.
`Cc1c(-c2[nH]c3ccc(C4CCNCC4)cc3c2C(C)C)cn2ccnc2c1C(C)C` [Example 273, 8-isopropyl-6-(3-isopropyl-5-(piperidin-4-yl)-1H-indol-2-yl)-7-methylimidazo[1,2-a]pyridine]: the figures for the IC50 against human TLR8, against human TLR9 and against human TLR7 were 100 to 1000 nM, 100 to 1000 nM and under 100 nM, respectively.
Take `CC(C)c1c(-c2ccnc3[nH]ncc23)[nH]c2cc(Cl)c(C3CCNCC3)cc12` [Example 252, 4-(6-chloro-3-isopropyl-5-(piperidin-4-yl)-1H-indol-2-yl)-1H-pyrazolo[3,4-b]pyridine]: the IC50 against human TLR8 is under 100 nM; against human TLR9 it was 100 to 1000 nM; on human TLR7, under 100 nM.
Take `CNC(=O)CN1CCC(c2ccc3[nH]c(-c4cc(C)n5nccc5c4)c(C(C)C)c3c2)CC1` [Example 443, 2-(4-(3-isopropyl-2-(7-methylpyrazolo[1,5-a]pyridin-5-yl)-1H-indol-5-yl)piperidin-1-yl)-N-methylacetamide]: the results for the IC50 on human TLR8, at human TLR9 and at human TLR7 were under 100 nM, 1000 to 50000 nM and under 100 nM, respectively.
Regarding `Cc1cc2nnnn2cc1-c1[nH]c2ccc(C3CCN(CC(N)=O)CC3)cc2c1C(C)C` [Example 315, 2-(4-(3-isopropyl-2-(7-methyltetrazolo[1,5-a]pyridin-6-yl)-1H-indol-5-yl)piperidin-1-yl)acetamide], the IC50 at human TLR8 was under 100 nM; against human TLR9 it was 1000 to 50000 nM; against human TLR7, under 100 nM.
As to `Cc1cc(-c2[nH]c3ccc(C4CCNCC4)cc3c2C(C)C)cc2ncc(O)nc12` [Example 87, 6-(3-isopropyl-5-(piperidin-4-yl)-1H-indol-2-yl)-8-methylquinoxalin-2-ol], the IC50 was under 100 nM against human TLR8, 100 to 1000 nM on human TLR9 and under 100 nM on human TLR7.
Regarding `Cc1cc(-c2[nH]c3ccc(C4CCN(C(=O)CCN5CCCC5)CC4)cc3c2C(C)C)cn2nnnc12` [Example 618, 1-(4-(3-isopropyl-2-(8-methyltetrazolo[1,5-a]pyridin-6-yl)-1H-indol-5-yl)piperidin-1-yl)-3-(pyrrolidin-1-yl)propan-1-one], the results for the IC50 at human TLR8, on human TLR9 and against human TLR7 were under 100 nM, 100 to 1000 nM and under 100 nM, respectively.
For `Cc1cc2cc(-c3[nH]c4ccc(C5CCN(C(=O)CN(C)C)CC5)cc4c3C(C)C)cc(C)n2n1` [Example 552, 2-(dimethylamino)-1-(4-(2-(2,7-dimethylpyrazolo[1,5-a]pyridin-5-yl)-3-isopropyl-1H-indol-5-yl)piperidin-1-yl)ethan-1-one], the IC50 is under 100 nM against human TLR8, 100 to 1000 nM against human TLR9 and under 100 nM against human TLR7.
Take `Cc1cn2cc(-c3[nH]c4ccc(C5CCN(CC(=O)N(C)C)CC5)cc4c3C(C)C)c(C)cc2n1` [Example 375, 2-(4-(2-(2,7-dimethylimidazo[1,2-a]pyridin-6-yl)-3-isopropyl-1H-indol-5-yl)piperidin-1-yl)-N,N-dimethylacetamide]: the IC50 on human TLR8 was 100 to 1000 nM; against human TLR9, under 100 nM; on human TLR7, under 100 nM.

The values above are taken from US11739098B2 (BRISTOL-MYERS SQUIBB COMPANY, priority 2017, dated 2023).
